Measured values as given in ChEMBL document CHEMBL3351804, “Development of 2-aryl substituted quinazolin-4(3H)-one, pyrido[4,3-d]pyrimidin-4(3H)-one and pyrido[2,3-d]pyrimidin-4(3H)-one derivatives as microsomal prostaglandin E(2) synthase-1 inhibitors” (Bioorg Med Chem Lett, 2014).

Experiments:
[1] = target: Prostaglandin G/H synthase 1 (Homo sapiens) (UniProt P23219); experiment: Inhibition of COX1 in human U937 cells at 10 uM; format: cell-based; conditions: U-937
Prostaglandin E synthase [2] = target: T1, Prostaglandin E synthase (Homo sapiens, UniProt O14684); experiment: Inhibition of human recombinant mPGES-1 expressed in CHO cells using PGH2 as substrate incubated for 10 mins prior to substrate addition measured after 1 min
T1 sequence (O14684 whole entry): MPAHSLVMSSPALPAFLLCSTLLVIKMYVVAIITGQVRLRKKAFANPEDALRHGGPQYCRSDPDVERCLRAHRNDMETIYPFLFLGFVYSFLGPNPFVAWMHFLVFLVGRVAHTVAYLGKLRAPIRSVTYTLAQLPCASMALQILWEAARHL

[3] = target: Hematopoietic prostaglandin D synthase (Homo sapiens) (UniProt O60760); experiment: Inhibition of recombinant PGDS (unknown origin) at 10 uM
Chain of Hematopoietic prostaglandin D synthase (Homo sapiens) (O60760 whole entry): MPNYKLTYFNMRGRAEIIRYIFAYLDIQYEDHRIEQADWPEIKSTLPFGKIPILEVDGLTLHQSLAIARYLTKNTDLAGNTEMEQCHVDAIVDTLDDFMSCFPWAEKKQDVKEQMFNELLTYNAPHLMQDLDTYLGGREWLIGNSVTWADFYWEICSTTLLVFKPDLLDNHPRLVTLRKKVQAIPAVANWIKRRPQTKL

[4] = target: Prostaglandin E synthase 2 (Homo sapiens) (UniProt Q9H7Z7); experiment: Inhibition of recombinant mPGES-2 (unknown origin) at 10 uM
Chain of Prostaglandin E synthase 2 (Homo sapiens) (Q9H7Z7 whole entry): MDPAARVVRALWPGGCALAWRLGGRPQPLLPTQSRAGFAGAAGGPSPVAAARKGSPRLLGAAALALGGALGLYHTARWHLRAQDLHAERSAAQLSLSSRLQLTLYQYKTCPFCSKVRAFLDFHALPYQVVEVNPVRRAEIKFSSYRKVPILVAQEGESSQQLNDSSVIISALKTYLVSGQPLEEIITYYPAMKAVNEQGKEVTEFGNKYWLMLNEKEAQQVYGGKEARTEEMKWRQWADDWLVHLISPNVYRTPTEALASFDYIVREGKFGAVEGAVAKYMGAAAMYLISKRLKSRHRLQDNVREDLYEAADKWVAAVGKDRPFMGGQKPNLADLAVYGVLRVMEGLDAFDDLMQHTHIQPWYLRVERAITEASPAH

[5] = AUClast in Sprague-Dawley rat at 10 mg/kg, po; format: ADME, organism-based; design: time 0 - last, dose 10 mg/kg, route oral; conditions: plasma
[6] = target: T2, Cytosolic phospholipase A2 (Homo sapiens) (UniProt P47712); experiment: Inhibition of cPLA2 (unknown origin) at 10 uM
T2 sequence (whole entry): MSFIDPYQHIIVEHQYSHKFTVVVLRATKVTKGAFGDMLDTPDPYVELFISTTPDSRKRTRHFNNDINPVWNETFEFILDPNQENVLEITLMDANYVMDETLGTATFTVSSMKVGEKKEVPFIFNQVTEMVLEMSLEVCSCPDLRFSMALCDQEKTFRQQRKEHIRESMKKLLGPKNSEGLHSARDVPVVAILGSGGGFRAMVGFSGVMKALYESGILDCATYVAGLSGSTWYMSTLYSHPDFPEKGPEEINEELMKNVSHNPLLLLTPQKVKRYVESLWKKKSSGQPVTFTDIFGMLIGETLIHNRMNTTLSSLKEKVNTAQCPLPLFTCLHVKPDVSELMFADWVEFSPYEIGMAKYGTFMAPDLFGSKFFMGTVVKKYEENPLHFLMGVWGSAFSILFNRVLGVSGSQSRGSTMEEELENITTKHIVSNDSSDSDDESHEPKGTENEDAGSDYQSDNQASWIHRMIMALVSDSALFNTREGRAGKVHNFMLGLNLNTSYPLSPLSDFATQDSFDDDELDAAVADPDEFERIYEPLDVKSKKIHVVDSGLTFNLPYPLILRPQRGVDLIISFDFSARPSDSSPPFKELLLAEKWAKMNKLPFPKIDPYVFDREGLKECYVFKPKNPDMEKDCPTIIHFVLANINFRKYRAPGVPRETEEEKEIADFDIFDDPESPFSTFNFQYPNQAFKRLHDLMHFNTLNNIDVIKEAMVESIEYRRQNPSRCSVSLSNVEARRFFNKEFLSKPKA

Prostaglandin E synthase [7] = target: T1, Prostaglandin E synthase; experiment: Inhibition of mPGES-1 in human A549 cells assessed as inhibition of IL-1beta-induced PGE2 production incubated for 30 mins prior to IL-1beta challenge measured after 18 to 24 hrs; format: cell-based
[8] = target: T3, Thromboxane-A synthase (Homo sapiens) (UniProt P24557); experiment: Inhibition of recombinant TXAS (unknown origin) at 10 uM
T3 sequence (whole entry): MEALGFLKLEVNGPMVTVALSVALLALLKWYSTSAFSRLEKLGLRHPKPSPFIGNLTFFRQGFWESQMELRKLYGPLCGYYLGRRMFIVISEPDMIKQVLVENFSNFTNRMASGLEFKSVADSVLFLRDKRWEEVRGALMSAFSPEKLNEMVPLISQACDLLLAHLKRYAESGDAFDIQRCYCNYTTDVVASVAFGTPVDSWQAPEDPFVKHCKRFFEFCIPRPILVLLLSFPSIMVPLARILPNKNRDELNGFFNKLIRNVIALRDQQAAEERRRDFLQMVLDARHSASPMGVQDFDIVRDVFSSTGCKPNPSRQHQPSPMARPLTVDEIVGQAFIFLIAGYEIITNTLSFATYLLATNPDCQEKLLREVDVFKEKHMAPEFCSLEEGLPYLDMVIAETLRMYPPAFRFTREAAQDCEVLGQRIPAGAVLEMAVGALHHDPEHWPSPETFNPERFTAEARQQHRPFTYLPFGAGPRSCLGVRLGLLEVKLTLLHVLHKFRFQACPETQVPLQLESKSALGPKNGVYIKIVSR

[9] = target: T4, Prostaglandin G/H synthase 2 (Homo sapiens) (UniProt P35354); experiment: Inhibition of recombinant COX2 (unknown origin) at 10 uM
T4 sequence (whole entry): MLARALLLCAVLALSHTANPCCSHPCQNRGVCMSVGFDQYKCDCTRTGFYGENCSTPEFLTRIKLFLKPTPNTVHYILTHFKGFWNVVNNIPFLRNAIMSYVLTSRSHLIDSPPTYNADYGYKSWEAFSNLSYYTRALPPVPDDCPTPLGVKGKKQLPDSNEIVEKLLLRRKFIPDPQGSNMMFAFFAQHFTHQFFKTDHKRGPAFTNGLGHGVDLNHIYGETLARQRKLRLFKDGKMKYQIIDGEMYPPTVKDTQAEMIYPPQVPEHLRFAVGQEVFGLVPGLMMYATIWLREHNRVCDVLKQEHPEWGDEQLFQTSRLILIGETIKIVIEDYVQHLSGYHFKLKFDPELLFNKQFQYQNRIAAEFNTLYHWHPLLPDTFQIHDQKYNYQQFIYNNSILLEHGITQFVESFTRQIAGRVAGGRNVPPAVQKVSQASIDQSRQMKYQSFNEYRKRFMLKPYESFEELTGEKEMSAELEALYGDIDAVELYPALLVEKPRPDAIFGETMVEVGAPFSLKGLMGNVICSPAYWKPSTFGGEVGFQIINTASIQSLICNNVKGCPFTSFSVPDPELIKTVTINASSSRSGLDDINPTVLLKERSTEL

[10] = target: T5, Prostacyclin synthase (Homo sapiens) (UniProt Q16647); experiment: Inhibition of recombinant PGIS (unknown origin) at 10 uM
T5 sequence (whole entry): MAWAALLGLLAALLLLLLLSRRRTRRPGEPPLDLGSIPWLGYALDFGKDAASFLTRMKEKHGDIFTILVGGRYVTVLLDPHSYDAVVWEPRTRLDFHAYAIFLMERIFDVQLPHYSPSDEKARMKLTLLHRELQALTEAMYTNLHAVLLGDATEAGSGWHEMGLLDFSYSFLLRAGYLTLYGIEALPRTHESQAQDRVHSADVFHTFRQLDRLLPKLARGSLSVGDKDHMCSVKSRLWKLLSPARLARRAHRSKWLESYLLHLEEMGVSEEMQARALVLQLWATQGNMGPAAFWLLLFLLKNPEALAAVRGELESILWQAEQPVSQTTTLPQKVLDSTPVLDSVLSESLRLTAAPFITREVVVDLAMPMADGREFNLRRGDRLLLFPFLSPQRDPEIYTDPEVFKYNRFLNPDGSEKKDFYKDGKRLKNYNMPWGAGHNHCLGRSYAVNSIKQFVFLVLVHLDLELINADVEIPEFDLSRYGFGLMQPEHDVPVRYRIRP

Chain of Prostaglandin G/H synthase 1 (Homo sapiens) (P23219 whole entry): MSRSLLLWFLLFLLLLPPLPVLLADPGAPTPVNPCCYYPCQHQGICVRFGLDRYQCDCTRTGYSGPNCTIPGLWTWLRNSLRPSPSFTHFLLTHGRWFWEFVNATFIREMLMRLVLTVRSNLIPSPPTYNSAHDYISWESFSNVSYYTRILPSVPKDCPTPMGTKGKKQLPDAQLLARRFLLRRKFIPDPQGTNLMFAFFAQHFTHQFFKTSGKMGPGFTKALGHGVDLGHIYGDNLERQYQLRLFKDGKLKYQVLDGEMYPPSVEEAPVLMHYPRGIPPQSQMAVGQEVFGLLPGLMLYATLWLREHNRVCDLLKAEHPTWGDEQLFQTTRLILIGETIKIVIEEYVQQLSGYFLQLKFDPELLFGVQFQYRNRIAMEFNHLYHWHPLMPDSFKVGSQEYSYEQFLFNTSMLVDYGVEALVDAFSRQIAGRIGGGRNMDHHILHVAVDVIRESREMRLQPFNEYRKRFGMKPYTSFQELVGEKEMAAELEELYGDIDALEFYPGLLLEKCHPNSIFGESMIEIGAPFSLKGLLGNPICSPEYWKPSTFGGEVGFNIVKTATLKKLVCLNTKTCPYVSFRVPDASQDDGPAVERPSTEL

inhibition [1]: 2.74% | IC50 (Prostaglandin E synthase [2]): 5 nM | inhibition [3]: 18.7% | inhibition [4]: 0.02% | AUC(0-t) [5]: 1230 ng·h/mL | inhibition [6]: 12.1% | IC50 (Prostaglandin E synthase [7]): 5 nM | inhibition [8]: 10.5% | inhibition [9]: 4.87% | inhibition [10]: 0.67%
SMILES: CC(C)C(=O)NCc1ccc(Cl)c(-c2nc3cc(-c4ccc(C(F)(F)F)cc4)ncc3c(=O)[nH]2)c1
